Reference: the supplement of paper PMC10307832

Tests used:
Test in all cases: relative viability (nuclei count vs DMSO), 5 days (fraction); higher = more cells survive
AT9283 + Vorinostat = compound: O=C(Nc1c[nH]nc1-c1nc2ccc(CN3CCOCC3)cc2[nH]1)NC1CC1 [AT9283] + O=C(CCCCCCC(=O)Nc1ccccc1)NO [Vorinostat] (partner 1 µM)
Summary of the method: (§1)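 Lung cancer cell lines were seeded in 1536-well plates and dosed by pin tool the next day, with either a single drug or a fixed anchor-drug dose combined with five library-drug doses (not always all listed) spaced in √10 steps. Five days later, one step fixed the cells and stained their nuclei (final 0.05% Triton X-100, 1% formaldehyde, 1 ug/ml Hoechst), and nuclei were counted on 4× images. Relative viability is the nuclei count in treated wells divided by the count in vehicle wells, and each value is the median of duplicate plates.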

AT9283 + Crizotinib = compound: O=C(Nc1c[nH]nc1-c1nc2ccc(CN3CCOCC3)cc2[nH]1)NC1CC1 [AT9283] + C[C@@H](Oc1cc(-c2cnn(C3CCNCC3)c2)cnc1N)c1c(Cl)ccc(F)c1Cl [Crizotinib] (partner 1 µM)
Summary of the method: as §1

Erlotinib + Olaparib = compound: C#Cc1cccc(Nc2ncnc3cc(OCCOC)c(OCCOC)cc23)c1 [Erlotinib] + O=C(c1cc(Cc2n[nH]c(=O)c3ccccc23)ccc1F)N1CCN(C(=O)C2CC2)CC1 [Olaparib] (partner 8 µM)
Summary of the method: as §1

AT9283 + Linsitinib = compound: O=C(Nc1c[nH]nc1-c1nc2ccc(CN3CCOCC3)cc2[nH]1)NC1CC1 [AT9283] + C[C@]1(O)C[C@@H](c2nc(-c3ccc4ccc(-c5ccccc5)nc4c3)c3c(N)nccn32)C1 [Linsitinib] (partner 1 µM)
Summary of the method: as §1

AT9283 + Alpelisib = compound: O=C(Nc1c[nH]nc1-c1nc2ccc(CN3CCOCC3)cc2[nH]1)NC1CC1 [AT9283] + Cc1nc(NC(=O)N2CCC[C@H]2C(N)=O)sc1-c1ccnc(C(C)(C)C(F)(F)F)c1 [Alpelisib] (partner 2 µM)
Summary of the method: as §1

Row | Cell Line | relative viability (AT9283 + Vorinostat; first compound 0.003 µM) | relative viability (AT9283 + Vorinostat; first compound 0.03 µM) | relative viability (AT9283 + Vorinostat; first compound 0.09487 µM) | relative viability (AT9283 + Vorinostat; first compound 0.3 µM) | relative viability (AT9283 + Crizotinib; first compound 0.003 µM) | relative viability (AT9283 + Crizotinib; first compound 0.03 µM) | relative viability (AT9283 + Crizotinib; first compound 0.09487 µM) | relative viability (AT9283 + Crizotinib; first compound 0.3 µM) | relative viability (Erlotinib + Olaparib; first compound 0.02 µM) | relative viability (Erlotinib + Olaparib; first compound 0.2 µM) | relative viability (Erlotinib + Olaparib; first compound 2 µM) | relative viability (AT9283 + Linsitinib; first compound 0.003 µM) | relative viability (AT9283 + Linsitinib; first compound 0.03 µM) | relative viability (AT9283 + Linsitinib; first compound 0.09487 µM) | relative viability (AT9283 + Linsitinib; first compound 0.3 µM) | relative viability (AT9283 + Alpelisib; first compound 0.003 µM) | relative viability (AT9283 + Alpelisib; first compound 0.03 µM) | relative viability (AT9283 + Alpelisib; first compound 0.09487 µM) | relative viability (AT9283 + Alpelisib; first compound 0.3 µM) | relative viability (Erlotinib + Olaparib; first compound 0.6325 µM)
1 | LCLC-103H | 0.745 | 0.566 | 0.355 | 0.306 | 1.04 | 0.963 | 0.932 | 0.5 | 0.745 | 0.75 | 0.707 | 0.952 | 1.04 | 1.07 | 0.419 | 0.89 | 1.09 | 1.11 | 0.332 | 
2 | LK-2 | 0.282 | 0.185 | 0.146 | 0.138 | 0.255 | 0.218 | 0.241 | 0.251 | 0.914 | 0.706 | 0.611 | 0.341 | 0.351 | 0.129 | 0.127 | 0.936 | 0.379 | 0.21 | 0.236 | 0.804
3 | LOU-NH91 | 0.905 | 0.552 | 0.449 | 0.432 | 0.686 | 0.679 | 0.52 | 0.429 | 0.733 | 0.619 | 0.624 | 0.903 | 0.968 | 0.604 | 0.464 | 0.695 | 0.684 | 0.531 | 0.427 | 0.725
4 | LU99A | 0.457 | 0.253 | 0.228 | 0.15 | 0.492 | 0.28 | 0.185 | 0.168 | 0.309 | 0.29 | 0.208 | 0.409 | 0.196 | 0.165 | 0.165 | 0.489 | 0.222 | 0.144 | 0.152 | 0.252
5 | LXF-289 | 0.751 | 0.56 | 0.224 | 0.168 | 0.829 | 0.511 | 0.151 | 0.138 | 1.15 | 1.12 | 1.04 | 1 | 0.47 | 0.132 | 0.12 | 0.964 | 1.01 | 0.132 | 0.105 | 1.12
6 | NCI-H23 | 0.523 | 0.363 | 0.183 | 0.177 | 0.458 | 0.326 | 0.299 | 0.189 | 0.388 | 0.261 | 0.294 | 0.801 | 0.338 | 0.232 | 0.145 | 0.707 | 0.668 | 0.396 | 0.168 | 0.289
7 | NCI-H322M | 0.87 | 0.579 | 0.497 | 0.407 | 0.888 | 0.611 | 0.446 | 0.337 | 0.776 | 0.67 | 0.551 | 0.932 | 0.682 | 0.478 | 0.425 | 0.846 | 0.906 | 0.544 | 0.396 | 0.631
8 | NCI-H358 | 0.54 | 0.119 | 0.0833 | 0.0819 | 0.391 | 0.175 | 0.156 | 0.145 | 0.583 | 0.599 | 0.199 | 0.447 | 0.142 | 0.12 | 0.17 | 0.901 | 0.171 | 0.163 | 0.152 | 0.403
